What all share (assay type): functional
One test has as its system Candida parapsilosis. Description: Antimicrobial activity against Candida parapsilosis by macro dilution test. The following applies: Lodderomyces parapsilosis.
A further test concerns Cryptococcus neoformans. As to the kind of experiment: Antimicrobial activity against Cryptococcus neoformans by macro dilution test.
For the next test, the system named is Pichia kudriavzevii. Description: Antimicrobial activity against Pichia kudriavzevii by macro dilution test.
Another test relates to Escherichia coli. As to the kind of experiment: Antimicrobial activity against Escherichia coli by macro dilution test.
In a further test the test system is Candida albicans. Description: Antimicrobial activity against Candida albicans by macro dilution test.
In the next test the test system is Pseudomonas aeruginosa. Description: Antimicrobial activity against Pseudomonas aeruginosa by macro dilution test.
For a further test, the system named is Salmonella typhimurium. Description: Antimicrobial activity against Salmonella enterica subsp. enterica serovar Typhimurium by macro dilution test.
The test system of the next test is Staphylococcus aureus. As to the kind of experiment: Antimicrobial activity against Staphylococcus aureus by macro dilution test.
The subject of another test is Bacillus subtilis. Description: Antimicrobial activity against Bacillus subtilis by macro dilution test.
A further test concerns Streptococcus pyogenes. Description: Antimicrobial activity against Streptococcus pyogenes by macro dilution test.

Converted amounts (≈) assume the structure as drawn.

Turning to `CCCCC/C=C\CC[C@H](O)CCCCCCCC(=O)Oc1ccc2ccc(=O)oc2c1`, the minimal inhibitory concentration (MIC) – broadly, the lowest concentration that inhibits growth of the organism – against Candida parapsilosis was 16 µg/mL (≈ 36.2 µM); against Cryptococcus neoformans it was 8 µg/mL (≈ 18.1 µM); in the test on Pichia kudriavzevii it was 256 µg/mL (≈ 578 µM); against Escherichia coli it was 32 µg/mL (≈ 72.3 µM); against Candida albicans it was 2 µg/mL (≈ 4.52 µM); in the test on Pseudomonas aeruginosa it was 128 µg/mL (≈ 289 µM). The MIC in the test with Salmonella typhimurium came out at 64 µg/mL (≈ 145 µM); against Staphylococcus aureus, 32 µg/mL (≈ 72.3 µM); with Bacillus subtilis it was 64 µg/mL (≈ 145 µM); in the test with Streptococcus pyogenes, 32 µg/mL (≈ 72.3 µM).

Regarding `CCCCCC[C@@H](O)C/C=C\CCCCCCCC(=O)Oc1ccc2ccc(=O)oc2c1`, the MIC against Candida parapsilosis came out at 16 µg/mL (≈ 36.2 µM); against Cryptococcus neoformans, 16 µg/mL (≈ 36.2 µM); with Pichia kudriavzevii it was 256 µg/mL (≈ 578 µM); in the test with Escherichia coli it was 64 µg/mL (≈ 145 µM); against Candida albicans, 4 µg/mL (≈ 9.04 µM); in the test on Pseudomonas aeruginosa, 128 µg/mL (≈ 289 µM). The MIC against Salmonella typhimurium was determined as 64 µg/mL (≈ 145 µM); with Staphylococcus aureus, 32 µg/mL (≈ 72.3 µM); against Bacillus subtilis it was 64 µg/mL (≈ 145 µM); against Streptococcus pyogenes, 64 µg/mL (≈ 145 µM).

As for `CCCCCCCC/C=C\CCCCCCCC(=O)Oc1ccc2ccc(=O)oc2c1`, the MIC with Candida parapsilosis stood at 64 µg/mL (≈ 150 µM); against Cryptococcus neoformans it was 32 µg/mL (≈ 75 µM); with Pichia kudriavzevii it was 512 µg/mL (≈ 1200 µM); in the test on Escherichia coli, 128 µg/mL (≈ 300 µM); in the test on Candida albicans, 8 µg/mL (≈ 18.8 µM); against Pseudomonas aeruginosa, 128 µg/mL (≈ 300 µM). For the same molecule, the minimal inhibitory concentration (MIC) was 128 µg/mL (≈ 300 µM) against Salmonella typhimurium, 128 µg/mL (≈ 300 µM) with Staphylococcus aureus, 64 µg/mL (≈ 150 µM) in the test on Bacillus subtilis and 128 µg/mL (≈ 300 µM) in the test on Streptococcus pyogenes.

Regarding `C=CCCCCCCCCC(=O)Oc1ccc2ccc(=O)oc2c1`, the MIC is 32 µg/mL (≈ 97.4 µM) in the test on Candida parapsilosis; 16 µg/mL (≈ 48.7 µM) against Cryptococcus neoformans; 256 µg/mL (≈ 780 µM) with Pichia kudriavzevii; 128 µg/mL (≈ 390 µM) against Escherichia coli; 4 µg/mL (≈ 12.2 µM) in the test with Candida albicans; 128 µg/mL (≈ 390 µM) in the test with Pseudomonas aeruginosa. For the same molecule, the MIC against Salmonella typhimurium was 64 µg/mL (≈ 195 µM); in the test with Staphylococcus aureus, 128 µg/mL (≈ 390 µM); in the test with Bacillus subtilis, 64 µg/mL (≈ 195 µM); against Streptococcus pyogenes, 64 µg/mL (≈ 195 µM).

`O=C(N[C@H](CO)[C@H](O)c1ccc([N+](=O)[O-])cc1)C(Cl)Cl` [CHLORAMPHENICOL]: the MIC amounted to 32 µg/mL (≈ 99 µM) in the test on Escherichia coli; 64 µg/mL (≈ 198 µM) against Pseudomonas aeruginosa; 32 µg/mL (≈ 99 µM) in the test on Salmonella typhimurium; 32 µg/mL (≈ 99 µM) in the test with Staphylococcus aureus; 32 µg/mL (≈ 99 µM) against Bacillus subtilis; 32 µg/mL (≈ 99 µM) in the test on Streptococcus pyogenes.

In the case of `OC(Cn1cncn1)(Cn1cncn1)c1ccc(F)cc1F` [FLUCONAZOLE], the MIC against Candida parapsilosis was determined as 8 µg/mL (≈ 26.1 µM); against Cryptococcus neoformans it was 8 µg/mL (≈ 26.1 µM); against Pichia kudriavzevii it was 64 µg/mL (≈ 209 µM); against Candida albicans it was 1 µg/mL (≈ 3.27 µM).

The values are drawn from ChEMBL document CHEMBL3044529, “7-Hydroxy-coumarin derivatives: synthesis, characterization and preliminary antimicrobial activities” (2011).
